Data taken from ChEMBL document CHEMBL1135381, “Synthesis and structure-activity relationship of 2-(aminoalkyl)-2,3,3a,8-tetrahydrodibenzo[c,f]isoxazolo[2,3-a]azepine derivatives: a novel series of 5-HT(2A/2C) receptor antagonists. Part 2” (Bioorg Med Chem Lett, 2002).

Key:
[1] = target: T1, Alpha-2A adrenergic receptor (Homo sapiens, UniProt P08913); test: Binding affinity for human cloned Alpha-2A adrenergic receptor
T1 sequence (P08913 whole entry): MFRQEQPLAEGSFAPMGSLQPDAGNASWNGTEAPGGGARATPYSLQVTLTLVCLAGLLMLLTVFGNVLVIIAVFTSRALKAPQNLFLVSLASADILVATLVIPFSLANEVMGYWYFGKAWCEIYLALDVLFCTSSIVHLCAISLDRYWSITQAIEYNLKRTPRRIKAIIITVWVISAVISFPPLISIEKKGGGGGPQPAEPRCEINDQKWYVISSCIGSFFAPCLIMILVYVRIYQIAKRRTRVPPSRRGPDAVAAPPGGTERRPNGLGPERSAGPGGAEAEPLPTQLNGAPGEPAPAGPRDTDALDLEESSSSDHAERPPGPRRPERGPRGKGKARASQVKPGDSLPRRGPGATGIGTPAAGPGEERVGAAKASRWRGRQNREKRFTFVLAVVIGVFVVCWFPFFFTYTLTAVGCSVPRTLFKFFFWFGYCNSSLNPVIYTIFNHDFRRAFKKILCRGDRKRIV

Rattus norvegicus = test: In vivo activity in mCPP challenge test were performed in male Wistar rats by subcutaneous administration; assay type: functional; settings: sc
D(3) dopamine receptor = D(3) dopamine receptor (Homo sapiens, UniProt P35462); test: Binding affinity for human cloned Dopamine receptor D3
Chain of D(3) dopamine receptor (P35462 whole entry): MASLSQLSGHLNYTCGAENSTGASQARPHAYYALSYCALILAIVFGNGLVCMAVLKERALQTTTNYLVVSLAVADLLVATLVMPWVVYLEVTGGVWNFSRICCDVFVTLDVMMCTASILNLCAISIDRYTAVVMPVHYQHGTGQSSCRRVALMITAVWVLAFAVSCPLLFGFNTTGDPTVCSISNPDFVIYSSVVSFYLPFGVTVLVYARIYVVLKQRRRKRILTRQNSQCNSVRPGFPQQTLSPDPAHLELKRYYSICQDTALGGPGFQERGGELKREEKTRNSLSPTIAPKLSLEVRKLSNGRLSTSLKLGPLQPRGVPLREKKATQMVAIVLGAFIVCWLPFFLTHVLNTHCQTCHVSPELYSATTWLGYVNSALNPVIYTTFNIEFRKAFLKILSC

[2] = target: T2, 5-hydroxytryptamine receptor 1A (Homo sapiens, UniProt P08908); test: Binding affinity for human cloned 5-hydroxytryptamine 1A receptor
T2 sequence (P08908 whole entry): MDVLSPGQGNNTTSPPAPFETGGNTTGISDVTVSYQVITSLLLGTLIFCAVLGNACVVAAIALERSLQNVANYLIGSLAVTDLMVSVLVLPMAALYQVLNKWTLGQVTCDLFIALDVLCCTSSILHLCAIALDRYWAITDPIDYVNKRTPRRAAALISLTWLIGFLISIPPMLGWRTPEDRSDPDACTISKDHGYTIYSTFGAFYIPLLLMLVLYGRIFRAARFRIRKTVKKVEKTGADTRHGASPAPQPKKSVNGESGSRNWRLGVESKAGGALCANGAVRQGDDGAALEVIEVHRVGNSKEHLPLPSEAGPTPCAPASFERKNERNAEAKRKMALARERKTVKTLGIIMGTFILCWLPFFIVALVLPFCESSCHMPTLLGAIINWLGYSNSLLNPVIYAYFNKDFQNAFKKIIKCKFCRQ

[3] = target: T3, Alpha-2C adrenergic receptor (Homo sapiens, UniProt P18825); test: Binding affinity for human cloned Alpha-2C adrenergic receptor
T3 sequence (P18825 whole entry): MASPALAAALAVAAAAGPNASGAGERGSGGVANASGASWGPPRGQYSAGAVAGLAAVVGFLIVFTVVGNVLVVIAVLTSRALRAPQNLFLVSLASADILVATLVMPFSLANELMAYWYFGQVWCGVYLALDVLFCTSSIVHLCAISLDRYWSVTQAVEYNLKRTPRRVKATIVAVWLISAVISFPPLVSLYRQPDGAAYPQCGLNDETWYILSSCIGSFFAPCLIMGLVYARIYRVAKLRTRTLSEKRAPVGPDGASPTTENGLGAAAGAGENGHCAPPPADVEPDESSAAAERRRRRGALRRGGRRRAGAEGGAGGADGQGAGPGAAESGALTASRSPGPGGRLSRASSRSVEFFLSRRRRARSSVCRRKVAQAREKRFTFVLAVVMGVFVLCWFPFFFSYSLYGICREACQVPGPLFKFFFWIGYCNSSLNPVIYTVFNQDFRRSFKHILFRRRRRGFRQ

D(4) dopamine receptor = target: T4, D(4) dopamine receptor (Homo sapiens, UniProt P21917); test: Binding affinity for human cloned Dopamine receptor D4
T4 sequence (P21917 whole entry): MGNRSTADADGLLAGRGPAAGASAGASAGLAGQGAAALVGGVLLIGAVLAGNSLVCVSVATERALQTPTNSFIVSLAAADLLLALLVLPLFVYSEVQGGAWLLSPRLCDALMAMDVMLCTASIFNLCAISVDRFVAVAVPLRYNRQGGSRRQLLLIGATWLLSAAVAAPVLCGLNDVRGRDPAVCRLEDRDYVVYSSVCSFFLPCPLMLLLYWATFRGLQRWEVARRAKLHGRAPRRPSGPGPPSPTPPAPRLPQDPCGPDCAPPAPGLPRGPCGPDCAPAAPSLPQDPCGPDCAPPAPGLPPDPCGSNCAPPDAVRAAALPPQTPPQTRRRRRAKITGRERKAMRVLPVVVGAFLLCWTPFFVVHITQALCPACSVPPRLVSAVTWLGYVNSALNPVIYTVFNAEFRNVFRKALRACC

[4] = target: 5-hydroxytryptamine receptor 2A (Homo sapiens, UniProt P28223); test: Binding affinity at human cloned 5-hydroxytryptamine 2A receptor expressed in L929 cells by [125I]R91150 displacement.; assay type: cell-based
Chain of 5-hydroxytryptamine receptor 2A (P28223 whole entry): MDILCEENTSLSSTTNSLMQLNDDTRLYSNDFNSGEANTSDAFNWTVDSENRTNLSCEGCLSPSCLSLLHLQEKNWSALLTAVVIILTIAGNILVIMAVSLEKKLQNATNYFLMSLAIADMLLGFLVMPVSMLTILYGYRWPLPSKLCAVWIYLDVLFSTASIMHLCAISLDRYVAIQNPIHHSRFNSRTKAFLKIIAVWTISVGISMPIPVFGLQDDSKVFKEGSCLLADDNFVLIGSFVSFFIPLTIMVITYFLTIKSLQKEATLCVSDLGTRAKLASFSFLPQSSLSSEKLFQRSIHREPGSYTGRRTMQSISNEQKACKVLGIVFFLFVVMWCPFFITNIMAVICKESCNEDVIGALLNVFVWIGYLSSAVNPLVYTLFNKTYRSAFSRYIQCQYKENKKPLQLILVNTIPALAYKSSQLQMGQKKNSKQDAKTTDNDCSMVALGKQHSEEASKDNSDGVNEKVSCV

[5] = target: 5-hydroxytryptamine receptor 1D (Homo sapiens, UniProt P28221); test: Binding affinity for human cloned 5-hydroxytryptamine 1D receptor
Chain of 5-hydroxytryptamine receptor 1D (P28221 whole entry): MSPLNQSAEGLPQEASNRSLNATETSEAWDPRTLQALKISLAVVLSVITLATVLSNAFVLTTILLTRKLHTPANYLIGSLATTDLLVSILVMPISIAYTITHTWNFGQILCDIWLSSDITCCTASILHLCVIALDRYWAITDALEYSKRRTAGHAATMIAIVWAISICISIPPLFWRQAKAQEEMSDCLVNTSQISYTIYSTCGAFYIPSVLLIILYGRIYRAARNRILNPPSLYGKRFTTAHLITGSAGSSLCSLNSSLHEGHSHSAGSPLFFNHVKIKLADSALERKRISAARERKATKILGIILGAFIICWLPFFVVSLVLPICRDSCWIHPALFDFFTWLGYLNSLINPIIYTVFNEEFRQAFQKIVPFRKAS

[6] = target: T5, 5-hydroxytryptamine receptor 2C (Rattus norvegicus) (UniProt P08909); test: In vivo activity in rat mCPP challenge test following p.o. administration.; assay type: functional, organism-based
T5 sequence (whole entry): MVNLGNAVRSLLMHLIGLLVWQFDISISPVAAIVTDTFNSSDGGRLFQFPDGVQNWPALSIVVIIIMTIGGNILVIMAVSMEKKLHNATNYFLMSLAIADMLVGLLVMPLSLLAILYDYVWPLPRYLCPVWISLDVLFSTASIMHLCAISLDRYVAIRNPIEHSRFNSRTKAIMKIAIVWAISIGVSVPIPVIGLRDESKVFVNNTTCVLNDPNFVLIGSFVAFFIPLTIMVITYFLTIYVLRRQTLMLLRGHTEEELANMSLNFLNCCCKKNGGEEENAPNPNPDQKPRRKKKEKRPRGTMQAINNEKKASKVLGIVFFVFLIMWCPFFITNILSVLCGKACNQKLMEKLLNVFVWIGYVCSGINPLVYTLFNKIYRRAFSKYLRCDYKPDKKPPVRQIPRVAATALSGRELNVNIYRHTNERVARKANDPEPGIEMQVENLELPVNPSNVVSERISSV

[7] = target: Serotonin 3 (5-HT3) receptor; test: Binding affinity for human cloned 5-hydroxytryptamine 3 receptor; assay type: protein-complex assay
[8] = target: T6, 5-hydroxytryptamine receptor 2C (Homo sapiens, UniProt P28335); test: Binding affinity at human cloned 5-hydroxytryptamine 2C receptor expressed in CHO cells by [3H]mesulergine displacement.; assay type: cell-based
T6 sequence (P28335 whole entry): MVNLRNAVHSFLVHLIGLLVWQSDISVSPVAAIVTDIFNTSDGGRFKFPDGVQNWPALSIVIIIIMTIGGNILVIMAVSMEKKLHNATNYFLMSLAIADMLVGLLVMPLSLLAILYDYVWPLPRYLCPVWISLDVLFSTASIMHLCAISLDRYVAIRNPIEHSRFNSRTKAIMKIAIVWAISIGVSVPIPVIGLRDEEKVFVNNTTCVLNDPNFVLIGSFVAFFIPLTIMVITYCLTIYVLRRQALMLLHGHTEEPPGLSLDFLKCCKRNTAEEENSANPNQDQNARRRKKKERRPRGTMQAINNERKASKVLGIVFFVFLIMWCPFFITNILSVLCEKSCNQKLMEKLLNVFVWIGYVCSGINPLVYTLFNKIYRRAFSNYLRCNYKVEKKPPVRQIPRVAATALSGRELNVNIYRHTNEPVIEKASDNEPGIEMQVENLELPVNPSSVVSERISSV

Histamine H1 receptor = Histamine H1 receptor (Homo sapiens, UniProt P35367); test: Binding affinity at human cloned Histamine H1 receptor expressed in CHO cells by [3H]pyrilamine displacement.; assay type: cell-based
Chain of Histamine H1 receptor (P35367 whole entry): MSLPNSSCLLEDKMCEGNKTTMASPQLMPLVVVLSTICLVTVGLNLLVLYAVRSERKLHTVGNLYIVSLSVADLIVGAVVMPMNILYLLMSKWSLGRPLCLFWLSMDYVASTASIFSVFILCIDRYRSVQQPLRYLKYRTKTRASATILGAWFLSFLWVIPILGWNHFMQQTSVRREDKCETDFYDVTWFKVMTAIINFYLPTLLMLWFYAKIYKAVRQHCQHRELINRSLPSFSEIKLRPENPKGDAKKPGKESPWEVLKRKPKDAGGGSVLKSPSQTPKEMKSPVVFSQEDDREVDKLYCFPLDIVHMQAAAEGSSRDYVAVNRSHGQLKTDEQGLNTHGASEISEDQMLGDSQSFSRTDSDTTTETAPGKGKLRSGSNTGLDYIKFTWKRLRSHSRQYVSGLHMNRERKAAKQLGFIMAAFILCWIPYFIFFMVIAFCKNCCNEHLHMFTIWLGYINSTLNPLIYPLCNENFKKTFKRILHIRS

D(2) dopamine receptor = D(2) dopamine receptor (Rattus norvegicus, UniProt P61169); test: Binding affinity for rat Dopamine receptor D2
Chain of D(2) dopamine receptor (P61169 whole entry): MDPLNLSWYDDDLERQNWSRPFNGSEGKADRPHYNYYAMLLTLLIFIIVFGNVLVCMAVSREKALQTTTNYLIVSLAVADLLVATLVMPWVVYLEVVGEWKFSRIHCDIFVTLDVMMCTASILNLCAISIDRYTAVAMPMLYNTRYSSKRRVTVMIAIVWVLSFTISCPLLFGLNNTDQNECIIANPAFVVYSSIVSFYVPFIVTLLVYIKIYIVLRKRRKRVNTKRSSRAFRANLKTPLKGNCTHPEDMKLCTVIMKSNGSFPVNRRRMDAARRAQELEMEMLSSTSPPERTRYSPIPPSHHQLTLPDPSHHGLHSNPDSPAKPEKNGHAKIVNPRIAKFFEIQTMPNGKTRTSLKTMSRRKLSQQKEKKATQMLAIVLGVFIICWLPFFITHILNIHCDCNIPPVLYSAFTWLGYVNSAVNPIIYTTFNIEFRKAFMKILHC

| SMILES | IC50 [4] [nM] | ED50 [6] [mg/kg] | ED50 (Rattus norvegicus) [mg/kg] | other results |
| --- | --- | --- | --- | --- |
| CN(C)CC1CC2c3cc(F)ccc3Cc3ccc(F)cc3N2O1 (configuration not stated) | 10.7 | 0.63 | 0.04 | IC50 [1]: > 1000 nM; IC50 (D(3) dopamine receptor): > 1000 nM; IC50 [2]: > 1000 nM; IC50 [3]: > 1000 nM; IC50 (D(4) dopamine receptor): > 1000 nM; IC50 [5]: > 1000 nM; pIC50 [7]: < 6 |
| CN(C)CC1CC2c3ccccc3Cc3ccc(-c4ccccc4)cc3N2O1 (configuration not stated) | – | > 2.5 | > 2.5 | – |
| CN(C)CC1CC2c3cccc(Cl)c3Cc3ccccc3N2O1 (configuration not stated) | > 1000 | > 2.5 | – | IC50 [8]: > 1000 nM; IC50 (Histamine H1 receptor): > 1000 nM |
| CN(C)CC1CC2c3cc(C(F)(F)F)ccc3Cc3ccccc3N2O1 (configuration not stated) | > 1000 | > 2.5 | 2.5 | IC50 [8]: > 1000 nM; IC50 (Histamine H1 receptor): > 1000 nM |
| Cc1ccc2c(c1)N1OC(CN(C)C)CC1c1ccccc1C2 (configuration not stated) | – | 2.5 | 0.16 | IC50 (D(2) dopamine receptor): > 1000 nM; IC50 [1]: > 1000 nM; IC50 (D(3) dopamine receptor): > 1000 nM; IC50 [2]: > 1000 nM; IC50 [3]: > 1000 nM; IC50 (D(4) dopamine receptor): > 1000 nM; IC50 [5]: > 1000 nM; pIC50 [7]: < 6 |
| CN(C)CC1CC2c3ccccc3Cc3ccc(Br)cc3N2O1 (configuration not stated) | – | 2.5 | – | – |
| CN(C)CC1CC2c3ccccc3Cc3ccc(Cl)cc3N2O1 (configuration not stated) | – | 0.63 | 0.16 | pIC50 [7]: 6.32 |
| CN(C)CC1CC2c3ccc(Cl)cc3Cc3ccccc3N2O1 (configuration not stated) | – | – | > 2.5 | – |
| CN(C)CC1CC2c3c(F)cccc3Cc3ccccc3N2O1 (configuration not stated) | > 1000 | – | > 2.5 | IC50 [8]: > 1000 nM; IC50 (Histamine H1 receptor): > 1000 nM |

Continued, in another order:

| IC50 [4] [nM] | ED50 [6] [mg/kg] | SMILES | ED50 (Rattus norvegicus) [mg/kg] | other results |
| --- | --- | --- | --- | --- |
| – | > 2.5 | COc1ccc2c(c1)C1CC(CN(C)C)ON1c1ccccc1C2 (configuration not stated) | – | – |
| 31.6 | 2.5 | CN(C)CC1CC2c3cccc(F)c3Cc3ccccc3N2O1 (configuration not stated) | 2.5 | – |
| 1.15 | 2.5 | CN(C)CC1CC2c3ccccc3Cc3ccc(F)cc3N2O1 (configuration not stated) | – | IC50 (D(2) dopamine receptor): > 1000 nM; pIC50 [7]: < 6 |
| – | 2.5 | CN(C)CC1CC2c3ccccc3Cc3c(F)cccc3N2O1 (configuration not stated) | – | – |
| – | > 2.5 | CN(C)CC1CC2c3c(cccc3C(F)(F)F)Cc3ccccc3N2O1 (configuration not stated) | 2.5 | – |
| 10.5 | 2.5 | Cc1ccc2c(c1)Cc1ccccc1N1OC(CN(C)C)CC21 (configuration not stated) | – | – |
| – | > 2.5 | Cc1cccc2c1Cc1ccccc1C1CC(CN(C)C)ON21 (configuration not stated) | – | – |
| – | > 2.5 | CN(C)CC1CC2c3ccccc3Cc3cccc(Cl)c3N2O1 (configuration not stated) | – | – |
| – | > 2.5 | Cc1cccc2c1C1CC(CN(C)C)ON1c1ccccc1C2 (configuration not stated) | – | – |
| – | > 2.5 | CN(C)CC1CC2c3cccc(C(F)(F)F)c3Cc3ccccc3N2O1 (configuration not stated) | – | – |
| – | 2.5 | CN(C)CC1CC2c3ccccc3Cc3cc(F)ccc3N2O1 (configuration not stated) | – | – |
| – | 0.63 | CN(C)CC1CC2c3ccccc3Cc3ccccc3N2O1 (configuration not stated) | 0.04 | – |
| – | > 2.5 | CN(C)CC1CC2c3cc(F)ccc3Cc3ccccc3N2O1 (configuration not stated) | > 2.5 | – |
